Experimental data reported in patent US8058427B2, “Coumarin compounds and their use for treating cancer” (National Health Research Institutes, priority 2008, dated 2011).

tested on: Human cervical carcinoma KB cells; test: Growth inhibition assay, KB cells (MTS); type: cell-based; settings: 72 h, read-out: IC50 (concentration causing 50% cell growth inhibition)
Protocol: Anticancer activities of the compounds of this invention were evaluated using a growth inhibition assay described in Kuo et al., Cancer Res. 2004, 64(13), 4621-4628.
Human cervical carcinoma KB cells were maintained in plastic dishes in DMEM medium supplemented with 10% fetal bovine serum. For in vitro treatment, tumor cells were seeded in […] of culture medium/well in 96-well plates to a final cell density of 6×10^3 cell/mL and incubated in a CO2 incubator at 37° C. for 24 h. The cells were treated with at least five different concentrations of a test compound, and incubated in a CO2 incubator at 37° C. for 72 h. The number of viable cells was estimated using MTS assay and absorbance was measured at 490 nm. For each test compound, dose-response curves were measured with at least five different drug concentrations, and the concentration causing 50% cell growth inhibition (IC50) compared with the control was calculated.

Structure (SMILES)	IC50 [nM]
O=C(c1ccccc1)c1oc2ccc3ccc(=O)oc3c2c1-c1ccccc1 [Compound 2]	101 to 999
Cc1cc2ccc3oc(C(=O)c4ccccc4)c(-c4ccccc4)c3c2oc1=O [Compound 3]	101 to 999
Cc1cc(=O)oc2c1cc(C)c1oc(C(=O)c3ccccc3)c(-c3ccccc3)c12 [Compound 8]	1000 to 10000
O=Cc1cc(=O)oc2c1ccc1oc(C(=O)c3ccccc3)c(-c3ccccc3)c12 [Compound 10]	101 to 999
O=C(c1ccccc1)c1oc2ccc3c(C(F)(F)F)cc(=O)oc3c2c1-c1ccccc1 [Compound 11]	101 to 999
Cc1c(Cc2ccccc2)c(=O)oc2c1ccc1oc(C(=O)c3ccccc3)c(-c3ccccc3)c12 [Compound 19]	1000 to 10000
O=C(c1ccccc1)c1oc2ccc3c4c(c(=O)oc3c2c1-c1ccccc1)CCCC4 [Compound 21]	1000 to 10000
O=C(c1ccccc1)c1oc2ccc3c4ccccc4c(=O)oc3c2c1-c1ccccc1 [Compound 22]	1000 to 10000
Cc1cc(=O)oc2c1ccc1sc(C(=O)c3ccccc3)c(-c3ccccc3)c12 [Compound 26]	101 to 999
Cc1cc(=O)oc2c1ccc1oc(C(=O)c3ccccc3C(F)(F)F)c(-c3ccccc3)c12 [Compound 35]	1000 to 10000
Cc1cc(=O)oc2c1ccc1oc(C(=O)c3cccc(C(F)(F)F)c3)c(-c3ccccc3)c12 [Compound 36]	101 to 999
Cc1cc(=O)oc2c1ccc1oc(C(=O)c3ccc(C(F)(F)F)cc3)c(-c3ccccc3)c12 [Compound 37]	1000 to 10000
Cc1cc(=O)oc2c1ccc1oc(C(=O)c3ccc(OC(F)(F)F)cc3)c(-c3ccccc3)c12 [Compound 38]	101 to 999
Cc1ccc(C(=O)c2oc3ccc4c(C)cc(=O)oc4c3c2-c2ccccc2)cc1 [Compound 41]	101 to 999
Cc1cc(=O)oc2c1ccc1oc(C(=O)c3cccc(C#N)c3)c(-c3ccccc3)c12 [Compound 42]	101 to 999
Cc1cc(=O)oc2c1ccc1oc(C(=O)c3ccc(F)cc3)c(-c3ccccc3)c12 [Compound 46]	101 to 999
Cc1cc(=O)oc2c1ccc1oc(C(=O)c3ccc(Cl)cc3)c(-c3ccccc3)c12 [Compound 49]	101 to 999
Cc1cc(=O)oc2c1ccc1oc(C(=O)c3ccc(Br)cc3)c(-c3ccccc3)c12 [Compound 50]	101 to 999
Cc1cc(=O)oc2c1ccc1oc(C(=O)c3ccc([N+](=O)[O-])cc3)c(-c3ccccc3)c12 [Compound 51]	101 to 999
Cc1cc(=O)oc2c1ccc1oc(C(=O)c3ccc(-c4ccccc4)cc3)c(-c3ccccc3)c12 [Compound 52]	1000 to 10000
Cc1cc(=O)oc2c1ccc1oc(C(=O)c3ccc(Cl)c(Cl)c3)c(-c3ccccc3)c12 [Compound 58]	101 to 999
Cc1cc(=O)oc2c1ccc1oc(C(=O)c3ccc(F)c(F)c3)c(-c3ccccc3)c12 [Compound 60]	101 to 999
Cc1cc(=O)oc2c1ccc1oc(C(=O)c3cc(F)ccc3F)c(-c3ccccc3)c12 [Compound 61]	101 to 999
Cc1ccc(C(=O)c2oc3ccc4c(C)cc(=O)oc4c3c2-c2ccccc2)c(C)c1 [Compound 62]	101 to 999
Cc1cc(=O)oc2c1ccc1oc(C(=O)c3cccc([N+](=O)[O-])c3)c(-c3ccccc3)c12 [Compound 66]	101 to 999

Structure (SMILES)	IC50 [nM]
Cc1cc(=O)oc2c1ccc1oc(C(=O)c3cccc(OCCCCN4CCCCC4)c3)c(-c3ccccc3)c12 [Compound 85]	101 to 999
Cc1cc(=O)oc2c1ccc1oc(C(=O)c3cccc(OCCCCN(C)C)c3)c(-c3ccccc3)c12 [Compound 88]	101 to 999
Cc1cc(=O)oc2c1ccc1oc(C(=O)c3cccc(OCCN4CCN(C)CC4)c3)c(-c3ccccc3)c12 [Compound 89]	101 to 999
Cc1cc(=O)oc2c1ccc1oc(C(=O)c3cccc(OCCCN4CCN(C)CC4)c3)c(-c3ccccc3)c12 [Compound 90]	101 to 999
Cc1cc(=O)oc2c1ccc1oc(C(=O)c3cccc(OCCCCN4CCN(C)CC4)c3)c(-c3ccccc3)c12 [Compound 91]	1000 to 10000
Cc1cc(=O)oc2c1ccc1oc(C(=O)c3ccco3)c(-c3ccccc3)c12 [Compound 92]	101 to 999
Cc1ccc(C(=O)c2oc3ccc4c(C)cc(=O)oc4c3c2-c2ccccc2)o1 [Compound 94]	101 to 999
Cc1cc(=O)oc2c1ccc1oc(C(=O)c3cc(Cl)sc3Cl)c(-c3ccccc3)c12 [Compound 97]	1000 to 10000
Cc1cc(=O)oc2c1ccc1oc(C(=O)c3ccc(Br)s3)c(-c3ccccc3)c12 [Compound 98]	101 to 999
Cc1cc(=O)oc2c1ccc1oc(C(=O)c3cccn3C)c(-c3ccccc3)c12 [Compound 102]	1000 to 10000
CCOC(=O)c1cc(C(=O)c2oc3ccc4c(C)cc(=O)oc4c3c2-c2ccccc2)on1 [Compound 110]	1000 to 10000
Cc1cc(=O)oc2c1ccc1oc(C(=O)c3cc(-c4ccc(Cl)cc4)no3)c(-c3ccccc3)c12 [Compound 112]	1000 to 10000
CC(=O)c1oc2ccc3c(C)cc(=O)oc3c2c1-c1ccccc1 [Compound 119]	1000 to 10000
Cc1cc(=O)oc2c1ccc1oc(C(=O)C3CCCCC3)c(-c3ccccc3)c12 [Compound 127]	1000 to 10000
Cc1cc(=O)oc2c1ccc1oc(C(=O)c3ccccc3)c(-c3cccc(F)c3)c12 [Compound 133]	101 to 999
Cc1cc(=O)oc2c1ccc1oc(C(=O)c3ccccc3)c(-c3ccccc3Cl)c12 [Compound 135]	101 to 999
Cc1cc(=O)oc2c1ccc1oc(C(=O)c3ccccc3)c(-c3cccc(Cl)c3)c12 [Compound 136]	101 to 999
Cc1cc(=O)oc2c1ccc1oc(C(=O)c3ccccc3)c(-c3ccc(Cl)cc3)c12 [Compound 137]	101 to 999
Cc1cc(=O)oc2c1ccc1oc(C(=O)c3ccccc3)c(-c3ccccc3Br)c12 [Compound 138]	101 to 999
Cc1cc(=O)oc2c1ccc1oc(C(=O)c3ccccc3)cc12 [Compound 153]	101 to 999
Cc1cc(=O)oc2c1ccc1oc(C(=O)c3ccccc3)c(C)c12 [Compound 154]	101 to 999
CCCc1c(C(=O)c2ccccc2)oc2ccc3c(C)cc(=O)oc3c12 [Compound 155]	101 to 999
CCCCCc1c(C(=O)c2ccccc2)oc2ccc3c(C)cc(=O)oc3c12 [Compound 156]	1000 to 10000
CCCCCCc1c(C(=O)c2ccccc2)oc2ccc3c(C)cc(=O)oc3c12 [Compound 157]	101 to 999
CCCCCCCCCCc1c(C(=O)c2ccccc2)oc2ccc3c(C)cc(=O)oc3c12 [Compound 158]	1000 to 10000

Structure (SMILES)	IC50 [nM]
Cc1cc(=O)oc2c1ccc1oc(C(=O)c3ccccc3)c(-c3ccco3)c12 [Compound 159]	101 to 999
Cc1cc(=O)oc2c1ccc1oc(C(=O)c3ccccc3)c(/C=C/c3ccccc3)c12 [Compound 161]	101 to 999
Cc1cc(=O)oc2c1ccc1oc(C(=O)c3ccccc3)c(C3CCCCC3)c12 [Compound 165]	101 to 999
Cc1cc(=O)oc2c1ccc1oc(Cc3ccccc3)c(-c3ccccc3)c12 [Compound 173]	101 to 999
Cc1cc(=O)oc2c1ccc1oc(/C(=N/NC(N)=O)c3ccccc3)c(-c3ccccc3)c12 [Compound 174]	1000 to 10000
Cc1cc(=O)oc2c1ccc1oc(/C(=N/OCc3ccccc3)c3ccccc3)c(-c3ccccc3)c12 [Compound 175]	101 to 999
CO/N=C(\c1ccccc1)c1oc2ccc3c(C)cc(=O)oc3c2c1-c1ccccc1 [Compound 176]	1000 to 10000
Cc1cc(=O)oc2c1ccc1oc(C(=O)c3cccc(OCCOCCOCCO)c3)c(-c3ccccc3)c12 [Compound 177]	101 to 999
Cc1cc(=O)oc2c1ccc1oc(C(=O)c3cccc(OCCN[C@@]45C[C@@H]6C[C@@H](C[C@@](O)(C6)C4)C5)c3)c(-c3ccccc3)c12 [Compound 183]	101 to 999
Cc1cc(=O)oc2c1ccc1oc(C(=O)c3cccc(OCCO)c3)c(-c3ccccc3)c12 [Compound 184]	101 to 999
Cc1cc(=O)oc2c1ccc1oc(C(=O)c3cccc(OCCO[Si](C)(C)C(C)(C)C)c3)c(-c3ccccc3)c12 [Compound 189]	101 to 999
Cc1cc(=O)oc2c1ccc1oc(C(=O)c3cccc(OCCCO[Si](C)(C)C(C)(C)C)c3)c(-c3ccccc3)c12 [Compound 190]	101 to 999
Cc1cc(=O)oc2c1ccc1oc(C(=O)c3cccc(OCCCCCCO[Si](C)(C)C(C)(C)C)c3)c(-c3ccccc3)c12 [Compound 193]	101 to 999
CC(=O)OCC1C(OCCOc2cccc(C(=O)c3oc4ccc5c(C)cc(=O)oc5c4c3-c3ccccc3)c2)OC(OC(C)=O)C(OC(C)=O)C1OC(C)=O (stereo not shown) [Compound 194]	101 to 999
Cc1cc(=O)oc2c1ccc1oc(C(=O)c3cccc(OCCCOC4OC(CO)C(O)C(O)C4O)c3)c(-c3ccccc3)c12 (stereo not shown) [Compound 197]	101 to 999
Cc1cc(=O)oc2c1ccc1oc(C(=O)c3ccccc3O)c(-c3ccccc3)c12 [Compound 204]	101 to 999
Cc1cc(=O)oc2c1ccc1oc(C(=O)c3ccccc3)c(-c3cccc4ccccc34)c12 [Compound 206]	101 to 999
Cc1cc(=O)oc2c1ccc1oc(C(=O)c3ccc4ccccc4c3)c(-c3ccc(Br)cc3)c12 [Compound 208]	1000 to 10000
Cc1cc(=O)oc2c1ccc1oc(C(=O)c3ccc(F)cc3)c(-c3ccc(Br)cc3)c12 [Compound 209]	101 to 999
Cc1cc(=O)oc2c1ccc1oc(C(=O)c3ccc(Cl)cc3)c(-c3ccc(Br)cc3)c12 [Compound 210]	1000 to 10000
Cc1cc(=O)oc2c1ccc1oc(C(=O)c3ccc(Br)cc3)c(-c3ccc(Br)cc3)c12 [Compound 211]	1000 to 10000
Cc1ccc(C(=O)c2oc3ccc4c(C)cc(=O)oc4c3c2-c2ccc(Br)cc2)cc1 [Compound 212]	1000 to 10000
COc1ccc(C(=O)c2oc3ccc4c(C)cc(=O)oc4c3c2-c2ccc(Br)cc2)cc1 [Compound 214]	1000 to 10000
